Results taken from patent publication US9796768B2, “Peptide inhibitors of sodium channels” (The University of North Carolina at Chapel Hill, priority 2014, dated 2017).
pIC50: −log10 of the molar value. Entries after “also recorded” stand apart in the source; their conditions may differ. Where two headings read alike, the source gives them in different places. Non-standard residues stand in square brackets, D forms with d. Residues, ends and D or L forms follow the SMILES beside them. No end group written: not given here. Nle = CCCC[C@H](N)C(=O)O

Key:
[1] = target: T1, ENaC (Homo sapiens, UniProt P51168); assay: Airway surface liquid (ASL) height in human bronchial epithelial cultures by XZ-confocal microscopy (ENaC-led fluid absorption); assay type: cell-based; details: for efficacy in ASL height dose response relative to S18: dose responses in airway cultures (FIGS. 3A-3B); for potency in ASL height dose response relative to S18: dose responses in airway cultures (FIGS. 3A-3B, 4); for activity on inhibition of ENaC / preservation of ASL height, compared with S18: peptides added mucosally to HBECs at 30 μM, ASL height measured 3 h later (FIG. 2)
T1 construct: endogenous in cells; host or cells: primary human bronchial epithelial cultures (HBECs) at air-liquid interface
T1 sequence (P37088 whole entry partner): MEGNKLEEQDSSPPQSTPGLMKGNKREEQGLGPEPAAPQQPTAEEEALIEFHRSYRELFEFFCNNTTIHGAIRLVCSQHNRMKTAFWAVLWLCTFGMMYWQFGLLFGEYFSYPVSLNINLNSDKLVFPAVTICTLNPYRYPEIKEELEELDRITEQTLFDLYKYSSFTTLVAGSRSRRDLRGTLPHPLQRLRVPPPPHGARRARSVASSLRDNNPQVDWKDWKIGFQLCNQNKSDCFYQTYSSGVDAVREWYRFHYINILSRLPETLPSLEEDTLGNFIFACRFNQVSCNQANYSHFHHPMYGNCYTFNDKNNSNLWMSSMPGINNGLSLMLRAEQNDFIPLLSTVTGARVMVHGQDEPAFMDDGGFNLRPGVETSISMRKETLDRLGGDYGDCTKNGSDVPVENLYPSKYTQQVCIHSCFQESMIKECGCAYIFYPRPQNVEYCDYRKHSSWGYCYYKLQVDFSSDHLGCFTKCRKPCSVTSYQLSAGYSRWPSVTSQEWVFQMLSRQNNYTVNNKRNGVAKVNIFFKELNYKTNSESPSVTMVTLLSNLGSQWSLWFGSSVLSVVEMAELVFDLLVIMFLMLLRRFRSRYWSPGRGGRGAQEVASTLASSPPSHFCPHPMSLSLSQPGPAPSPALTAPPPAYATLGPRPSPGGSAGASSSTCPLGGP
T1 sequence (P51168 whole entry): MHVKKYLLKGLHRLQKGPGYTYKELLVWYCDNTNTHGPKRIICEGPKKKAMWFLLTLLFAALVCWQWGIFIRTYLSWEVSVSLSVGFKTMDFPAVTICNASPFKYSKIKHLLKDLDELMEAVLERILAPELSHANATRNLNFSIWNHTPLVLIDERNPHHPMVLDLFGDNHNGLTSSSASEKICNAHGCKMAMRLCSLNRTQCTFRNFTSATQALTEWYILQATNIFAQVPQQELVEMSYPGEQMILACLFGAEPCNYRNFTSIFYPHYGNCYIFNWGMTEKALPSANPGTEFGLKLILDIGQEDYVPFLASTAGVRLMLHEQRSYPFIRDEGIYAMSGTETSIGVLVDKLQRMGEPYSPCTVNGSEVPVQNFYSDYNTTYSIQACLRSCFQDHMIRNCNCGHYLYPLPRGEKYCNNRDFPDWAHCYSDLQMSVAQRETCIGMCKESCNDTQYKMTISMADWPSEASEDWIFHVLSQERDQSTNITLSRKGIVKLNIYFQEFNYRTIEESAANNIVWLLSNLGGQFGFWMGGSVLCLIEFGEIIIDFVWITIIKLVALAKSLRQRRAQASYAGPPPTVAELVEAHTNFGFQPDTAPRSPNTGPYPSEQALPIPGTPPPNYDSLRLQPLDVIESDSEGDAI
T1 sequence (P51170 whole entry partner): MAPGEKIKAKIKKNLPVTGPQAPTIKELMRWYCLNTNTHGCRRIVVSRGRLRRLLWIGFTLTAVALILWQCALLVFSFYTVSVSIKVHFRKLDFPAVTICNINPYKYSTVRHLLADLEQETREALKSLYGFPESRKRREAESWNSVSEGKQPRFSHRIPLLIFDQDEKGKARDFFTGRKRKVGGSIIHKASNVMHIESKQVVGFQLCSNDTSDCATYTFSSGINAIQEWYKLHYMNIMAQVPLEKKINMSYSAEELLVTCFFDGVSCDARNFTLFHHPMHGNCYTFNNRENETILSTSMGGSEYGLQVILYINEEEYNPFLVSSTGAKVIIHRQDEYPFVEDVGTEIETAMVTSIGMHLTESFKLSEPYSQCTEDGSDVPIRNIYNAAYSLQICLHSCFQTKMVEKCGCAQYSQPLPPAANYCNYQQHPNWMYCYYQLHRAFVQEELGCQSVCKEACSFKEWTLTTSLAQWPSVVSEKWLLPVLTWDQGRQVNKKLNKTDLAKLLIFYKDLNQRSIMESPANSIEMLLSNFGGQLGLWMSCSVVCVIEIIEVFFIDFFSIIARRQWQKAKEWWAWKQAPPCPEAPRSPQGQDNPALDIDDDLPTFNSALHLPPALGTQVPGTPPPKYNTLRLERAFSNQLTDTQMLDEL
Text: Cells were harvested by enzymatic digestion from human bronchial tissue as previously described under a protocol approved by the UNC School of Medicine IRB (Tarran et al., J. Gen. Physiol. 127:591 (2006)). Human excess donor lungs and excised recipient lungs were obtained at the time of lung transplantation from portions of main stem or […] bronchi and cells were harvested by enzymatic digestion. All preparations were maintained at an air-liquid interface in a modified bronchial epithelial medium and used 2-5 weeks after seeding on 12 mm T-Clear inserts (Corning Costar) coated with human placental type VI collagen (Sigma). Phosphate buffered saline (PBS) was used for washing human bronchial epithelial culture mucosal surfaces.
To label airway surface liquid, Ringer containing Texas Red-dextran (2 mg/ml; Invitrogen) was added to human bronchial epithelial culture mucosal surfaces. Perfluorocarbon was added mucosally to prevent evaporation of the airway surface liquid and the culture placed in a chamber containing 100 μl Ringer on the stage of a Leica SP8 confocal microscope with a 63× glycerol immersion objective. 10 points per culture were scanned and an average airway surface liquid height determined. For confocal microscopy human bronchial epithelial cultures were bathed serosally in a modified Ringer solution containing (mM): 116 NaCl, 10 NaHCO3, 5.1 KCl, 1.2 CaCl2, 1.2 MgCl2, 20 TES, 10 glucose, pH 7.4). At all other times, human bronchial epithelial cultures were maintained in a modified BEGM growth medium which contained 24 mM NaHCO3 gassed with 5% CO2. Perfluorocarbon (FC-77) was obtained from 3M and had no effect on ASL height as previously reported.
D-alanines are noted as lowercase a. All n=6-9. Data are shown as mean±SEM.

[2] = system: βENaC-Tg mice; assay type: in vivo
Text: Like CF patients, βENaC-Tg mice are disease free at birth, but soon develop obstructive lung disease (Zhou, Z., et al. Am J Respir Crit Care Med 178, 1245-1256 (2008)). C57BL:FVB and C57BL:C3H mixed strains have 90% and 50% mortality, respectively, and the reproducibility of the disease on these backgrounds is sufficiently high that reliable data are produced with n of about 8-10 animals/group. Furthermore, the βENaC-Tg mouse responds to therapeutic interventions in a fashion similar to CF/COPD in humans, and the development of lung disease can be prevented following inhibition of lung disease at birth (Livraghi, A., et al. J Immunol 182, 4357-4367 (2009)). S18-derived peptides or vehicle were dosed one to three times a day by intranasal instillation (1 μl/g body weight) for 14 days in parallel cohorts of mice. Mice were weighed daily and, if a diuretic effect was found, the volume excreted was replaced by sub-cutaneous injections of sterile saline. At the end of the treatment, mice were sacrificed for phenotypic analysis.

[3] = Heat stability; assay type: physicochemical
[4] = target: T1, ENaC; details: previously demonstrated (Hobbs et al., 2013); cited from earlier work
[5] = βENaC-Tg C57BL:C3H mice, fourteen-day treatment (FIGS. 7C, 7D, 7F)

## aaLPVPLDQTLPLNVNPaa ([dA][dA]LPVPLDQTLPLNVNP[dA][dA]-NH2; N-terminus assumed; SMILES CC(C)C[C@H](NC(=O)[C@@H]1CCCN1C(=O)[C@H](CC(C)C)NC(=O)[C@@H](NC(=O)[C@H](CCC(N)=O)NC(=O)[C@H](CC(=O)O)NC(=O)[C@H](CC(C)C)NC(=O)[C@@H]1CCCN1C(=O)[C@@H](NC(=O)[C@@H]1CCCN1C(=O)[C@H](CC(C)C)NC(=O)[C@@H](C)NC(=O)[C@@H](C)N)C(C)C)[C@@H](C)O)C(=O)N[C@@H](CC(N)=O)C(=O)N[C@H](C(=O)N[C@@H](CC(N)=O)C(=O)N1CCC[C@H]1C(=O)N[C@H](C)C(=O)N[C@H](C)C(N)=O)C(C)C) [SEQ ID NO:2, a = D-alanine]
[1]
  efficacy in ASL height dose response relative to S18: equal potency and efficacy
  potency in ASL height dose response relative to S18: equal potency

## aaLPVPNleDQTaa [SEQ ID NO:6]
[1]
  efficacy in ASL height dose response relative to S18: diminished

## CC[C@H](C)[C@H](NC(=O)[C@@H]1CCCN1C(=O)[C@H](CC(C)C)NC(=O)[C@@H](C)NC(=O)[C@@H](C)N)C(=O)N1CCC[C@H]1C(=O)N[C@@H](CC(C)C)C(=O)N[C@@H](CC(=O)O)C(=O)N[C@@H](CCC(N)=O)C(=O)N[C@H](C(=O)N[C@H](C)C(=O)N[C@H](C)C(N)=O)[C@@H](C)O [SEQ ID NO:128, aaLPIPLDQTaa] (H-[dA][dA]LPIPLDQT[dA][dA]-NH2)
[2]; [5]
  percent survival: increased percent survival
[2]; βENaC-Tg C57BL:C3H mice, once daily dosing (FIG. 7E left panel)
  percent survival: increased percent survival
[2]; βENaC-Tg C57BL:FVB mice, fourteen-day treatment, inhaled (FIG. 7B)
  percent survival: more effective than inhaled SEQ ID NO:142

## H-LPVPLDQT-NH2 [SEQ ID NO:113, LPVPLDQT]
[1]
  activity on inhibition of ENaC / preservation of ASL height, compared with S18: retained similar activity to 518; also recorded: required for inhibition of ENaC and preservation of ASL height

## SEQ ID NO:127: NH3-L-P-I-P-L-D-Q-T-NH2 (H-LPIPLDQT-NH2)
[2]; [5]
  percent survival: increased percent survival

## aaLPVPLDQSaa ([dA][dA]LPVPLDQS[dA][dA]-NH2; N-terminus assumed; SMILES CC(C)C[C@H](NC(=O)[C@@H]1CCCN1C(=O)[C@@H](NC(=O)[C@@H]1CCCN1C(=O)[C@H](CC(C)C)NC(=O)[C@@H](C)NC(=O)[C@@H](C)N)C(C)C)C(=O)N[C@@H](CC(=O)O)C(=O)N[C@@H](CCC(N)=O)C(=O)N[C@@H](CO)C(=O)N[C@H](C)C(=O)N[C@H](C)C(N)=O) [SEQ ID NO:9, a = D-alanine]
[1]
  potency in ASL height dose response relative to S18: diminished potency

## DQTLPLNVNP (also: C-terminal amide, amidation at residue 8) [SEQ ID NO:114]
[1]
  activity on inhibition of ENaC / preservation of ASL height, compared with S18: inactive

## H-GGLPVPLDQTLPLNVNPA-NH2 [S18]
[3]
  heat stability: heat-stable
[4]
  EC50 of ENaC inhibition: sub micromolar range
  duration of ENaC inhibition following a single dose: up to 24 h

## CCCC[C@H](NC(=O)[C@@H]1CCCN1C(=O)[C@H](CC(C)C)NC(=O)[C@@H](C)NC(=O)[C@@H](C)N)C(=O)N1CCC[C@H]1C(=O)N[C@@H](CC(C)C)C(=O)N[C@@H](CC(=O)O)C(=O)N[C@@H](CCC(N)=O)C(=O)N[C@H](C(=O)N[C@H](C)C(=O)N[C@H](C)C(N)=O)[C@@H](C)O [SEQ ID NO:5, aaLPNlePLDQTaa] (H-[dA][dA]LP[Nle]PLDQT[dA][dA]-NH2; N-terminus assumed)
[1]; additional dose response, fresh batch of airway cells (FIG. 4)
  pIC50: 7.52
[1]
  potency in ASL height dose response relative to S18: log-fold increase in potency; also recorded: significant increase in potency; also recorded: increased potency

## aaLPVPLDQTaa ([dA][dA]LPVPLDQT[dA][dA]-NH2; N-terminus assumed; SMILES CC(C)C[C@H](NC(=O)[C@@H]1CCCN1C(=O)[C@@H](NC(=O)[C@@H]1CCCN1C(=O)[C@H](CC(C)C)NC(=O)[C@@H](C)NC(=O)[C@@H](C)N)C(C)C)C(=O)N[C@@H](CC(=O)O)C(=O)N[C@@H](CCC(N)=O)C(=O)N[C@H](C(=O)N[C@H](C)C(=O)N[C@H](C)C(N)=O)[C@@H](C)O) [SEQ ID NO:3, a = D-alanine]
[1]
  efficacy in ASL height dose response relative to S18: did not affect its potency or efficacy; also recorded: equal potency and efficacy
  potency in ASL height dose response relative to S18: identical dose responses; also recorded: equal potency
